Source: ChEMBL document CHEMBL4190186 (Medchemcomm, 2016)
Active and inactive are the calls of the source. No cut-off for these calls is given here.

Assays:
LN-18 [1] = test: Cytotoxicity against human LN18 cells harboring TP53 mutation assessed as cell death at 20 uM after 48 hrs by MTT assay relative to control; assay type: functional
T98G [2] = test: Cytotoxicity against PTEN/TP53 deficient human T98G cells assessed as cell death at 20 uM after 48 hrs by MTT assay relative to control; assay type: functional
NCI-H460 = test: Cytotoxicity against human NCI-H460 cells; assay type: functional, cell-based
LN-18 [3] = test: Cytotoxicity against human LN18 cells harboring TP53 mutation after 48 hrs by MTT assay; assay type: functional, cell-based
T98G [4] = test: Cytotoxicity against PTEN/TP53 deficient human T98G cells after 48 hrs by MTT assay; assay type: functional, cell-based
LN-18 [5] = test: Induction of apoptosis in human LN18 cells harboring TP53 mutation assessed as increase in cleaved caspase-3 expression at 20 uM after 24 to 48 hrs by Western blot analysis; assay type: functional, cell-based
T98G [6] = test: Induction of apoptosis in PTEN/TP53 deficient human T98G cells assessed as increase in cleaved caspase-3 expression at 20 uM after 24 to 48 hrs by Western blot analysis; assay type: functional, cell-based
LN-18 [7] = test: Induction of apoptosis in human LN18 cells harboring TP53 mutation assessed as increase in cleaved caspase-8 expression at 20 uM after 24 to 48 hrs by Western blot analysis; assay type: functional, cell-based
T98G [8] = test: Induction of apoptosis in PTEN/TP53 deficient human T98G cells assessed as increase in cleaved caspase-8 expression at 20 uM after 24 to 48 hrs by Western blot analysis; assay type: functional, cell-based
LN-18 [9] = test: Induction of apoptosis in human LN18 cells harboring TP53 mutation assessed as increase in cleaved caspase-9 expression at 20 uM after 24 to 48 hrs by Western blot analysis; assay type: functional, cell-based
T98G [10] = test: Induction of apoptosis in PTEN/TP53 deficient human T98G cells assessed as increase in cleaved caspase-9 expression at 20 uM after 24 to 48 hrs by Western blot analysis; assay type: functional, cell-based
LN-18 [11] = test: Induction of apoptosis in human LN18 cells harboring TP53 mutation assessed as increase in cleaved PARP expression at 20 uM after 24 to 48 hrs by Western blot analysis; assay type: functional, cell-based
T98G [12] = test: Induction of apoptosis in PTEN/TP53 deficient human T98G cells assessed as increase in cleaved PARP expression at 20 uM after 24 to 48 hrs by Western blot analysis; assay type: functional, cell-based
LN-18 [13] = test: Effect on H3K27me3 levels in human LN18 cells harboring TP53 mutation at 20 uM after 24 to 48 hrs by Western blot analysis; assay type: ADME, cell-based; conditions: ln-18, 20 µM
T98G [14] = test: Effect on H3K27me3 levels in PTEN/TP53 deficient human T98G cells at 20 uM after 24 to 48 hrs by Western blot analysis; assay type: ADME, cell-based
Astrocyte = test: Cytotoxicity against rat primary cortical astrocytes assessed as reduction in cell viability at 5 to 40 uM after 48 hrs by MTT assay relative to control; assay type: cell-based

## O=C1/C(=C\c2ccc(O)cc2)c2ccccc2N1O
LN-18 [1]
  Activity: inactive
T98G [2]
  Activity: inactive

## CON1C(=O)/C(=C\c2ccc(-c3ccccc3)cc2)c2ccccc21
LN-18 [1]
  Activity: Active
T98G [2]
  Activity: Active

## O=C(Nc1ccccc1)Nc1ccc(/C=C2\C(=O)Nc3ccccc32)cc1
LN-18 [1]
  Activity: inactive
T98G [2]
  Activity: inactive

## CN(C)c1nsc2c1C(=O)c1ccccc1C2=O
LN-18 [1]
  Activity: >50 - 70%
NCI-H460
  IC50: 0.22 µM
T98G [2]
  Activity: >50 - 70%
LN-18 [3]
  Activity: Dose-dependent effect
T98G [4]
  Activity: Dose-dependent effect
LN-18 [5]
  Activity: inactive
T98G [6]
  Activity: inactive
LN-18 [7]
  Activity: inactive
T98G [8]
  Activity: inactive
LN-18 [9]
  Activity: inactive
T98G [10]
  Activity: inactive
LN-18 [11]
  Activity: inactive
T98G [12]
  Activity: inactive
LN-18 [13]
  Activity: Non-Toxic
T98G [14]
  Activity: Non-Toxic

## O=C1Nc2ccc(Cl)cc2/C1=C/c1ccc(-c2ccccc2)cc1
LN-18 [1]
  Activity: Active
T98G [2]
  Activity: Active

## Cc1[nH]c2ccccc2c1/C=C/c1ccccc1-c1ccc(/C=C/C(=O)Nc2cc(-c3ccccc3)ccc2O)cc1
LN-18 [1]
  Activity: Active
T98G [2]
  Activity: Active

## Cc1[nH]c2ccccc2c1/C=C/c1ccccc1-c1ccc(/C=C/C(=O)NO)cc1
LN-18 [1]
  Activity: >70%
T98G [2]
  Activity: >70%
LN-18 [3]
  Activity: Dose-dependent effect
T98G [4]
  Activity: Dose-dependent effect
LN-18 [5]
  Activity: Active
T98G [6]
  Activity: Active
LN-18 [7]
  Activity: Active
T98G [8]
  Activity: Active
LN-18 [9]
  Activity: Active
T98G [10]
  Activity: Active
LN-18 [11]
  Activity: Active
T98G [12]
  Activity: Active
LN-18 [13]
  Activity: Non-Toxic
T98G [14]
  Activity: Non-Toxic
Astrocyte
  Activity: Non-Toxic

## COc1ccc(-c2ccc(/C=C/C(=O)NO)cc2)cc1
LN-18 [1]
  Activity: Active
T98G [2]
  Activity: Active

## O=C1/C(=C\c2ccc(-c3ccccc3)cc2)c2ccccc2N1O
LN-18 [1]
  Activity: Active
T98G [2]
  Activity: Active

## O=C1Nc2ccccc2/C1=C/c1ccc(-c2ccccc2)cc1
LN-18 [1]
  Activity: Active
T98G [2]
  Activity: Active

## NNC(=O)N/C=C/c1ccc(-c2ccccc2)cc1
LN-18 [1]
  Activity: Active
T98G [2]
  Activity: Active

## Nc1nsc2c1C(=O)c1ccccc1C2=O
LN-18 [1]
  Activity: >50 - 70%
NCI-H460
  IC50: 0.28 µM
T98G [2]
  Activity: >50 - 70%

## O=C(Nc1ccccc1)Nc1ccc(/C=C2\C(=O)N(O)c3ccccc32)cc1
LN-18 [1]
  Activity: inactive
T98G [2]
  Activity: inactive

## O=C1c2ccccc2C(=O)c2c(-c3ccccc3)nsc21
LN-18 [1]
  Activity: >50 - 70%
NCI-H460
  IC50: 0.36 µM
T98G [2]
  Activity: >50 - 70%
LN-18 [3]
  Activity: Dose-dependent effect
T98G [4]
  Activity: Dose-dependent effect
LN-18 [5]
  Activity: inactive
T98G [6]
  Activity: inactive
LN-18 [7]
  Activity: inactive
T98G [8]
  Activity: inactive
LN-18 [9]
  Activity: inactive
T98G [10]
  Activity: inactive
LN-18 [11]
  Activity: inactive
T98G [12]
  Activity: inactive
LN-18 [13]
  Activity: Non-Toxic
T98G [14]
  Activity: Non-Toxic
Astrocyte
  Activity: > 50%

## O=C(/C=C/c1ccc(-c2ccccc2)cc1)NO
LN-18 [1]
  Activity: Active
T98G [2]
  Activity: Active

## NNC(=O)/C=C/c1ccc(-c2ccccc2)cc1
LN-18 [1]
  Activity: Active
T98G [2]
  Activity: Active
